Test results: ChEMBL document CHEMBL1152027, “The prooligonucleotide approach. I: Esterase-mediated reversibility of dithymidine S-alkyl-phosphorothiolates to dithymidine phosphorothioates” (Bioorg Med Chem Lett, 1995)

How the values were obtained:
[1] = Half-life in the culture medium (RPMI 1640+10% fetal calf serum FCS); type: ADME, cell-free, Bos taurus; conditions: cattle
[2] = Half-life in the CEM cell extracts; type: ADME, CCRF-CEM; conditions: human

Row | SMILES | half-life [1] | half-life [2]
1 | CC(=O)SCSP(=O)(OCc1oc(-n2cc(C)c(=O)[nH]c2=O)cc1O)Oc1cc(-n2cc(C)c(=O)[nH]c2=O)oc1CO (stereo unspecified) | 60 min | < 5 min
2 | Cc1cn(-c2cc(O)c(COP(=O)(Oc3cc(-n4cc(C)c(=O)[nH]c4=O)oc3CO)SCOC(=O)C(C)(C)C)o2)c(=O)[nH]c1=O (stereo unspecified) | 360 min | 40 min
3 | CC(=O)SCCSP(=O)(OCc1oc(-n2cc(C)c(=O)[nH]c2=O)cc1O)Oc1cc(-n2cc(C)c(=O)[nH]c2=O)oc1CO (stereo unspecified) | 420 min | < 5 min
